In patent US11987588B2, “Modulators of the beta-3 adrenergic receptor useful for the treatment or prevention of heart failure and disorders related thereto” (Arena Pharmaceuticals, Inc., priority 2017, dated 2024):
pIC50: −log10 of the molar value.

Target: Beta-3 Adrenergic Receptor (Homo sapiens (Human), UniProt P13945)
Assay: Homogeneous Time-Resolved Fluorescence (HTRF) cAMP antagonist assay, IC50 determination
Type: cell-based
Details: CHO-K1 cells stably expressing recombinant receptor, isoproterenol at EC90
Experimental: HTRF cAMP assays were performed according to manufacturer's instructions (Cisbio, cAMP Dynamic 2 Assay Kit; #62AM4PEJ). CHO-K1 cells stably expressing recombinant receptor were harvested and suspended in warm PBS to make a 300,000 cells/mL stock. This cell suspension was dispensed into 384 well assay plates (PerkinElmer ProxiPlate #6008280) at 5 μL per well (1500 cells/well) along with a cAMP standard curve.
Compounds were dissolved and serially diluted (5-fold) in DMSO to generate a 10-point dose response stock. The stock was then diluted 100-fold in assay buffer (PBS containing 1 mM IBMX) before a volume of 2.5 μL was added to the cells (the final, top concentration of compound in the dose-response is typically 10 or 100 μM). After a brief incubation, 2.5 μL of isoproterenol stock, prepared at a concentration 4 times its EC90 at the receptor of interest, was added to the wells. The EC90 for isoproterenol, a beta-adrenergic agonist, was determined in separate experiments using standard methods to measure agonist potencies.
Following a 1-hour incubation at room temperature, 5 μL of cAMP-D2 Reagent diluted in Lysis Buffer was added to each well followed by 5 μL of Cryptate Reagent. Plates were further incubated at room temperature for 1 hour prior to reading. Time resolved fluorescence measurements were collected on a suitable, HTRF-capable plate reader.
Counts from the plate reader were fit to the cAMP standard curve on the assay plate in order to determine cAMP concentrations in each well, and these values were used to construct dose-response curves to obtain IC50 values.

Chain of Beta-3 Adrenergic Receptor (P13945 whole entry, species assumed): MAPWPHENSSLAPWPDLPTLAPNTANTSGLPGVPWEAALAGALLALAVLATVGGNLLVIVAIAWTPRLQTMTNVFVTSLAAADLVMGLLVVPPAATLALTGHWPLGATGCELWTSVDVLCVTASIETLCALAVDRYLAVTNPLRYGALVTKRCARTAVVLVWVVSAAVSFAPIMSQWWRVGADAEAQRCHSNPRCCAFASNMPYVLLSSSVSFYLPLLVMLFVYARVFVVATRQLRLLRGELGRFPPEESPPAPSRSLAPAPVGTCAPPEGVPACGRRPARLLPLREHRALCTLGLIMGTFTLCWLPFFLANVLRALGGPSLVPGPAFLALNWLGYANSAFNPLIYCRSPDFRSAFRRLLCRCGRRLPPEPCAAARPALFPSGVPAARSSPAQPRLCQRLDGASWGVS

Question: `C[C@H](CO)NS(=O)(=O)c1cccc(OC[C@@H](O)CNC2COC3(CCN(S(=O)(=O)c4ccc5ccccc5c4)CC3)C2)c1` (stereo partly drawn) [Compound 96, 3-((2S)-2-hydroxy-3-(8-(naphthalen-2-ylsulfonyl)-1-oxa-8-azaspiro[4.5]decan-3-ylamino)propoxy)-N—((R)-1-hydroxypropan-2-yl)benzenesulfonamide] was tested. Which pIC50 did it give?
Answer: 7.38

Question: With `CNS(=O)(=O)c1cccc(OC[C@@H](O)CNC2COC3(CCN(S(=O)(=O)c4cccc(F)c4F)CC3)C2)c1` (stereo partly drawn) [Compound 201, 3-((2S)-3-(8-(2,3-difluorophenylsulfonyl)-1-oxa-8-azaspiro[4.5]decan-3-ylamino)-2-hydroxypropoxy)-N-methylbenzenesulfonamide] as the compound, how does the pIC50 read?
Answer: 7.77

Question: How did the pIC50 turn out when `CCn1cc(S(=O)(=O)N2CCC3(CC2)C[C@@H](NC[C@H](O)COc2cccc(S(N)(=O)=O)c2)CO3)c(=O)c2ccc(F)cc21` [Compound 543, 3-((S)-3-((R)-8-(1-ethyl-7-fluoro-4-oxo-1,4-dihydroquinolin-3-ylsulfonyl)-1-oxa-8-azaspiro[4.5]decan-3-ylamino)-2-hydroxypropoxy)benzenesulfonamide] was run?
Answer: 7.18

Question: `CNS(=O)(=O)c1cccc(OC[C@@H](O)CNC2COC3(CCN(S(=O)(=O)c4cccc(CO)c4)CC3)C2)c1` (stereo partly drawn) [Compound 390, 3-((2S)-2-hydroxy-3-(8-(3-(hydroxymethyl)phenylsulfonyl)-1-oxa-8-azaspiro[4.5]decan-3-ylamino)propoxy)-N-methylbenzenesulfonamide] was tested. Which pIC50 did it give?
Answer: 6.82

Question: `CNS(=O)(=O)c1cccc(OC[C@@H](O)CN[C@H]2COC3(CCN(c4nccc(-c5ccccc5)n4)CC3)C2)c1` [Compound 572, 3-((S)-2-hydroxy-3-((R)-8-(4-phenylpyrimidin-2-yl)-1-oxa-8-azaspiro[4.5]decan-3-ylamino)propoxy)-N-methylbenzenesulfonamide] was tested. Which pIC50 did it give?
Answer: 7.18

Question: With `CNS(=O)(=O)c1cccc(OC[C@@H](O)CNC2COC3(CCN(S(=O)(=O)c4cccc(Cl)c4Cl)CC3)C2)c1` (stereo partly drawn) [Compound 142, 3-((2S)-3-(8-(2,3-dichlorophenylsulfonyl)-1-oxa-8-azaspiro[4.5]decan-3-ylamino)-2-hydroxypropoxy)-N-methylbenzenesulfonamide] as the compound, how does the pIC50 read?
Answer: 7.77

Question: With `CNS(=O)(=O)c1cccc(OC[C@@H](O)CNC2COC3(CCN(S(=O)(=O)c4cn[nH]c4)CC3)C2)c1` (stereo partly drawn) [Compound 131, 3-((2S)-3-(8-(1H-pyrazol-4-ylsulfonyl)-1-oxa-8-azaspiro[4.5]decan-3-ylamino)-2-hydroxypropoxy)-N-methylbenzenesulfonamide] as the compound, how does the pIC50 read?
Answer: 7.07

Question: With `CCn1ncc(S(=O)(=O)N2CCC3(CC2)CC(NC[C@H](O)COc2cccc(S(=O)(=O)NC)c2)CO3)c1C` (stereo partly drawn) [Compound 329, 3-((2S)-3-(8-(1-ethyl-5-methyl-1H-pyrazol-4-ylsulfonyl)-1-oxa-8-azaspiro[4.5]decan-3-ylamino)-2-hydroxypropoxy)-N-methylbenzenesulfonamide] as the compound, how does the pIC50 read?
Answer: 6.81

Question: With `CNS(=O)(=O)c1cccc(OC[C@@H](O)CNC2COC3(CCN(S(=O)(=O)c4ccc(Cl)c(C)c4)CC3)C2)c1` (stereo partly drawn) [Compound 151, 3-((2S)-3-(8-(4-chloro-3-methylphenylsulfonyl)-1-oxa-8-azaspiro[4.5]decan-3-ylamino)-2-hydroxypropoxy)-N-methylbenzenesulfonamide] as the compound, how does the pIC50 read?
Answer: 8.27

Question: With `Cc1cc(S(=O)(=O)N2CCC3(CC2)CC(NC[C@H](O)COc2cccc(S(=O)(=O)N(C)C)c2)CO3)ccc1Br` (stereo partly drawn) [Compound 249, 3-((2S)-3-(8-(4-bromo-3-methylphenylsulfonyl)-1-oxa-8-azaspiro[4.5]decan-3-ylamino)-2-hydroxypropoxy)-N,N-dimethylbenzenesulfonamide] as the compound, how does the pIC50 read?
Answer: 7.53

Question: How did the pIC50 turn out when `CCC(C)NS(=O)(=O)c1cccc(OC[C@@H](O)CNC2COC3(CCN(S(=O)(=O)c4ccc5ccccc5c4)CC3)C2)c1` (stereo partly drawn) [Compound 10, N-sec-butyl-3-((2S)-2-hydroxy-3-(8-(naphthalen-2-ylsulfonyl)-1-oxa-8-azaspiro[4.5]decan-3-ylamino)propoxy)benzenesulfonamide] was run?
Answer: 7.31
